Reference: ChEMBL document CHEMBL5338791, “Discovery of Novel 1,3-Diphenylpyrazine Derivatives as Potent S-Phase Kinase-Associated Protein 2 (Skp2) Inhibitors for the Treatment of Cancer” (J Med Chem, 2023)
≈ marks a conversion by molar mass, not a printed value. Calls of active or inactive are those of the source. No cut-off for these calls is given here.

How the values were obtained:
PC-3 [1] = assay: Upregulation of p27 level in human PC-3 cells at 20 uM incubated for 48 hrs by Western blot analysis; type: functional, cell-based
PC-3 [2] = assay: Upregulation of p21 level in human PC-3 cells at 20 uM incubated for 48 hrs by Western blot analysis; type: functional, cell-based
PC-3 [3] = assay: Downregulation of Skp2 level in human PC-3 cells at 20 uM incubated for 48 hrs by Western blot analysis; type: functional, cell-based
[4] = molecular target: T1, S-phase kinase-associated protein 2/Cyclin-dependent kinases regulatory subunit 1/S-phase kinase-associated protein 1 (Homo sapiens, UniProt Q13309); assay: Inhibition of GST-tagged Skp2/Skp1 (unknown origin)/His6-tagged Cks1 (unknown origin) interaction preincubated with Skp2/Skp1 for 10 mins followed by Cks1 addition measured after 20 mins by HTRF assay; type: protein assay
MGC-803 [5] = assay: Downregulation of Skp2 level in human MGC-803 cells at 20 uM incubated for 48 hrs by Western blot analysis; type: functional, cell-based
MGC-803 [6] = assay: Upregulation of p21 level in human MGC-803 cells at 20 uM incubated for 48 hrs by Western blot analysis; type: functional, cell-based
MGC-803 [7] = assay: Upregulation of p27 level in human MGC-803 cells at 20 uM incubated for 48 hrs by Western blot analysis; type: functional, cell-based
PC-3 [8] = assay: Induction of cell cycle arrest in human PC-3 cells assessed as accumulation of cells at G1 phase at 20 uM incubated for 48 hrs by flow cytometry (reference value: 57.39 %); type: functional
PC-3 [9] = assay: Induction of cell cycle arrest in human PC-3 cells assessed as accumulation of cells at S phase at 20 uM incubated for 48 hrs by flow cytometry (reference value: 22.44 %); type: functional
PC-3 [10] = assay: Induction of cell cycle arrest in human PC-3 cells assessed as accumulation of cells at G2 phase at 20 uM incubated for 48 hrs by flow cytometry (reference value: 22.59 %); type: functional
MGC-803 [11] = assay: Induction of cell cycle arrest in human MGC-803 cells assessed as accumulation of cells at G1 phase at 20 uM incubated for 48 hrs by flow cytometry (reference value: 54.46 %); type: functional
MGC-803 [12] = assay: Induction of cell cycle arrest in human MGC-803 cells assessed as accumulation of cells at S phase at 20 uM incubated for 48 hrs by flow cytometry (reference value: 22.72 %); type: functional
MGC-803 [13] = assay: Induction of cell cycle arrest in human MGC-803 cells assessed as accumulation of cells at G2 phase at 20 uM incubated for 48 hrs by flow cytometry (reference value: 21.35 %); type: functional
PC-3 [14] = assay: Induction of apoptosis in human PC-3 cells assessed as viable cells at 20 uM incubated for 48 hrs by annexin V-FITC/PI staining based flow cytometry (reference value: 98.6 %); type: functional; details: read-out: Activity
PC-3 [15] = assay: Induction of apoptosis in human PC-3 cells assessed as early apoptotic cells at 20 uM incubated for 48 hrs by annexin V-FITC/PI staining based flow cytometry (reference value: 0.85 %); type: functional
PC-3 [16] = assay: Induction of apoptosis in human PC-3 cells assessed as late apoptotic cells at 20 uM incubated for 48 hrs by annexin V-FITC/PI staining based flow cytometry (reference value: 0.45 %); type: functional
PC-3 [17] = assay: Induction of apoptosis in human PC-3 cells assessed as necrotic cells at 20 uM incubated for 48 hrs by annexin V-FITC/PI staining based flow cytometry (reference value: 0.14 %); type: functional
MGC-803 [18] = assay: Induction of apoptosis in human MGC-803 cells assessed as viable cells at 20 uM incubated for 48 hrs by annexin V-FITC/PI staining based flow cytometry (reference value: 98 %); type: functional; details: read-out: Activity
MGC-803 [19] = assay: Induction of apoptosis in human MGC-803 cells assessed as early apoptotic cells at 20 uM incubated for 48 hrs by annexin V-FITC/PI staining based flow cytometry (reference value: 0.21 %); type: functional
MGC-803 [20] = assay: Induction of apoptosis in human MGC-803 cells assessed as late apoptotic cells at 20 uM incubated for 48 hrs by annexin V-FITC/PI staining based flow cytometry (reference value: 0.95 %); type: functional
MGC-803 [21] = assay: Induction of apoptosis in human MGC-803 cells assessed as necrotic cells at 20 uM incubated for 48 hrs by annexin V-FITC/PI staining based flow cytometry (reference value: 0.89 %); type: functional
[22] = molecular target: T1, S-phase kinase-associated protein 2/Cyclin-dependent kinases regulatory subunit 1/S-phase kinase-associated protein 1; assay: Inhibition of GST-tagged Skp2/Skp1 (unknown origin)/His6-tagged Cks1 (unknown origin) interaction by AlphaScreen assay; type: protein assay
PC-3 [23] = assay: Antitumor activity against human PC-3 cells xenografted in NOD-SCID mouse model assessed as tumor growth inhibition at 5 mg/kg, ip administered once every 3 days for 21 days relative to control; type: functional; details: PC-3, 504 h, time 21 day, read-out: TGI
[24] = Toxicity in mouse assessed as increase in blood total bilirubin level at 5 mg/kg; type: organism-based; details: in vivo
[25] = Toxicity in mouse assessed as increase in blood BUN level at 5 mg/kg; type: organism-based; details: in vivo
[26] = Toxicity in mouse assessed as increase in blood GGT level at 5 mg/kg; type: organism-based; details: in vivo
[27] = Toxicity in mouse assessed as increase in blood glutamic pyruvic transaminase level at 5 mg/kg; type: organism-based; details: in vivo
[28] = Toxicity in mouse assessed as increase in blood creatinine level at 5 mg/kg; type: organism-based; details: in vivo
[29] = Toxicity in mouse assessed as decrease in total protein level at 5 mg/kg; type: organism-based; details: in vivo
[30] = Toxicity in mouse assessed as decrease in platelet level at 5 mg/kg; type: organism-based; details: in vivo
MGC-803 [31] = assay: Antitumor activity against human MGC-803 cells assessed as cell growth inhibition incubated for 72 hrs by MTT assay; type: functional, cell-based; details: MGC-803, 72 h
NCI-H1299 = assay: Antitumor activity against human NCI-H1299 cells assessed as cell growth inhibition incubated for 72 hrs by MTT assay; type: functional, cell-based; details: NCI-H1299, 72 h
MCF7 = assay: Antitumor activity against human MCF7 cells assessed as cell growth inhibition incubated for 72 hrs by MTT assay; type: functional, cell-based; details: MCF7, 72 h
[32] = Antitumor activity against human EC1 cells assessed as cell growth inhibition incubated for 72 hrs by MTT assay; type: functional, cell-based; details: EC1, 72 h
PC-3 [33] = assay: Antitumor activity against human PC-3 cells assessed as cell growth inhibition incubated for 72 hrs by MTT assay; type: functional, cell-based; details: PC-3, 72 h
[34] = Solubility in cell culture medium by HPLC analysis; type: physicochemical

T1 sequence (P61024 whole entry): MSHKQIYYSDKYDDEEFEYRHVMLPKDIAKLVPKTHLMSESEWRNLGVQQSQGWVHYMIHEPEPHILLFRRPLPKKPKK
T1 sequence (Q13309 whole entry): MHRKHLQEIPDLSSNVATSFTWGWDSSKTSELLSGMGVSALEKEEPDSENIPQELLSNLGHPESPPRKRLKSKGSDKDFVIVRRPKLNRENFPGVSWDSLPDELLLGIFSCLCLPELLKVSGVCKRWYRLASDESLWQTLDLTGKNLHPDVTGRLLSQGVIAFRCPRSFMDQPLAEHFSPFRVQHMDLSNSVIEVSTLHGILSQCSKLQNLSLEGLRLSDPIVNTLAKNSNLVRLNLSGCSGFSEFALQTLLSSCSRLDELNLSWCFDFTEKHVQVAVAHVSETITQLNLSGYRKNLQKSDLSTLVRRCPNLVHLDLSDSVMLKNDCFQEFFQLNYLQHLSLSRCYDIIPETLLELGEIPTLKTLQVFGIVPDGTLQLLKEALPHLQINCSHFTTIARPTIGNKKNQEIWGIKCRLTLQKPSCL
T1 sequence (P63208 whole entry, further chain): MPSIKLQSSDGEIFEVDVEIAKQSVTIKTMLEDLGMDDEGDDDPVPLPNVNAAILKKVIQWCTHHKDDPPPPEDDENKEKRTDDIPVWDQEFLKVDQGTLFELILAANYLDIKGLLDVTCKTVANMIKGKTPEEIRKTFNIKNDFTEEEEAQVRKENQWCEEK

CC(C)N(CCCCOCC(=O)NS(C)(=O)=O)c1cnc(-c2ccccc2)c(-c2ccccc2)n1 [SELEXIPAG]
Activity (PC-3 [1]): Active
Activity (PC-3 [2]): Active
Activity (PC-3 [3]): Active
IC50 [4]: 42.8 µM
Activity (MGC-803 [5]): Active
Activity (MGC-803 [6]): Active
Activity (MGC-803 [7]): Active
Activity (PC-3 [8]): 44.88%
Activity (PC-3 [9]): 34.85%
Activity (PC-3 [10]): 18.81%
Activity (MGC-803 [11]): 49.75%
Activity (MGC-803 [12]): 27.3%
Activity (MGC-803 [13]): 21.27%
viability at 20 µM (PC-3 [14]): 92.7%
Activity (PC-3 [15]): 0.57%
Activity (PC-3 [16]): 4.54%
Activity (PC-3 [17]): 2.22%
viability at 20 µM (MGC-803 [18]): 96.8%
Activity (MGC-803 [19]): 1.58%
Activity (MGC-803 [20]): 1.21%
Activity (MGC-803 [21]): 0.44%

O=C(OC12CC3CC(CC(C3)C1)C2)c1ccc(NCc2cc(O)ccc2O)cc1
IC50 [22]: 36.6 µM

CC(=O)O[C@H]1C(=O)[C@@]2(C)[C@H]([C@H](OC(=O)c3ccccc3)[C@]3(O)C[C@H](OC(=O)[C@H](O)[C@@H](NC(=O)c4ccccc4)c4ccccc4)C(C)=C1C3(C)C)[C@]1(OC(C)=O)CO[C@@H]1C[C@@H]2O [PACLITAXEL]
inhibition in vivo at 5 mg/kg (PC-3 [23]): 75.8%
Activity [24]: Toxic
Activity [25]: Toxic
Activity [26]: Toxic
Activity [27]: Toxic
Activity [28]: Toxic
Activity [29]: Toxic
Activity [30]: Toxic

CC(C)(C)C(=O)NCC1CCN(c2cnc(-c3ccc(S(C)(=O)=O)cc3)c(-c3ccccc3)n2)CC1
IC50 [4]: 2.7 µM
IC50 (MGC-803 [31]): 87.2 µM
IC50 (NCI-H1299): 50.8 µM
IC50 (MCF7): 65.6 µM
IC50 [32]: 88.2 µM
IC50 (PC-3 [33]): 63.7 µM
solubility [34]: 0.19 µg/mL (≈ 0.375 µM)
